In BindingDB's records for doi:10.1016/j.bioorg.2017.04.005 (Shenyang Pharmaceutical University, 2017):
Where a SMILES comes first, the peptide text is derived from it. [ ]: non-standard residue; d: D form. pY = N[C@@H](Cc1ccc(OP(=O)(O)O)cc1)C(=O)O

Target: T1, Histone-lysine N-methyltransferase EHMT2 (Homo sapiens, UniProt Q96KQ7)
T1 sequence (Q96KQ7 whole entry): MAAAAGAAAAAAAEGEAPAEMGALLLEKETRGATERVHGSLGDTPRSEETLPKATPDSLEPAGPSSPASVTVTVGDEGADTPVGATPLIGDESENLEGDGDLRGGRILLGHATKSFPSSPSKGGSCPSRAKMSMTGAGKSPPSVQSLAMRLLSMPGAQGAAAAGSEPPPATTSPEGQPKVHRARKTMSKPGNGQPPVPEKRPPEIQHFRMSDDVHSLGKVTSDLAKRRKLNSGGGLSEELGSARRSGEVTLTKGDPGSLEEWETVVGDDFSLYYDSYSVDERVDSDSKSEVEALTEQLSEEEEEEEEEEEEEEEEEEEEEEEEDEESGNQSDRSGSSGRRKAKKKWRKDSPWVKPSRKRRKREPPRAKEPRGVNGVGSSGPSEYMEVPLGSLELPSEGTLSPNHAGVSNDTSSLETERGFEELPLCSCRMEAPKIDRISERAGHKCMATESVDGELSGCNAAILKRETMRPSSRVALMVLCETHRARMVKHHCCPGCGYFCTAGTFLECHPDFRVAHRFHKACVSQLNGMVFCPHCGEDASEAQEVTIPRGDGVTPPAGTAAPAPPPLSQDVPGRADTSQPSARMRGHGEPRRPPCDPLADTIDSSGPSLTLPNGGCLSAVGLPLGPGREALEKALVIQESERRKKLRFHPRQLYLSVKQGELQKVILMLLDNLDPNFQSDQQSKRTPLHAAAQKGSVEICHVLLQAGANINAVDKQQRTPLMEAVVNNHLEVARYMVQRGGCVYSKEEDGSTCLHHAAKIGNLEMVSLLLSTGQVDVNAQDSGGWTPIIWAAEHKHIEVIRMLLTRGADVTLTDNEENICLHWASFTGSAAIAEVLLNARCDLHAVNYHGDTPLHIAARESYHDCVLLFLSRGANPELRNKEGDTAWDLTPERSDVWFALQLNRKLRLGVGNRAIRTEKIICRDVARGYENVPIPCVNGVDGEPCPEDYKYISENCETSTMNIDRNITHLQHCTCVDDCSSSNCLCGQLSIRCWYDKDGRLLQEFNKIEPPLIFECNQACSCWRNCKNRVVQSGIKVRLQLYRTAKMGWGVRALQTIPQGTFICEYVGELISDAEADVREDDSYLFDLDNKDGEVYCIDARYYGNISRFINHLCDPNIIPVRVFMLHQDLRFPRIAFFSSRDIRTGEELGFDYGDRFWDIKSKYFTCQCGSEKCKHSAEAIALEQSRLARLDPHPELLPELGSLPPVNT
Assay: Enzymatic Assay
Settings: pH 8.5; 25 °C
Description: Biochemical activity of G9a was measured as described [Kubicek et al., Mol. Cell, 25:473-481]. Assays were performed in white, opaque 384-well plates coated with Neutravidin (Pierce Biotechnology). Brd 4770 was used as a positive control. Test compounds were diluted to 12 μg/ml in Baffer A (50 mM Tris-HCl pH 8.5 containing 4% DMSO) and 10 μl was dispensed into the wells. Blank and control wells received only compound buffer. GST-G9a at 10 μg/ml and SAM at 40 μM were diluted in Buffer B (50 mM Tris HCl pH 8.5/10 mM DTT) and added in a volume of 20 μL. Blank wells received Tris/DTT buffer only. The reactions were initiated by the addition of 800 nM H3 (1-20)-cysbiotin substrate in Buffer C (50 mM Tris pH 8.5) in a volume of 10 μL, and incubated at room temperature for 60 min. The plates were washed 3 times with 100 μL of Wash Buffer (50 mM Tris pH 7.4, 150 mM NaCl, 0.05% Tween 20, 0.2% BSA). Next, 50 μl of Fluoroimmunoassay (FI) Buffer (50 mM Tris HCl pH 7.8, 150 mM NaCl, 0.05% Tween 40, 25 μM DTPA, 0.2% BSA, 0.05% BGG) containing 5 ng α-2X-di-meth H3-K9 and 5 ng goat anti-rabbit Eu chelate (Perkin Elmer Life Sciences) was added to all wells of the plate, and the plate was incubated for an additional hour at room temperature. The plates were washed 3 times with 100 μL of Wash Buffer, and 50 μL of Enhancement Solution (Perkin Elmer Life Sciences) was added to each well. Time resolved fluorescence was measured after 45 min on a Viewlux Microplate Imager (Perkin Elmer Life Sciences) imaging for 15 s with a 354 μs window, 400 μs delay, excitation at 360 nm, and emission at 618 nm.

## O=S(=O)(Nc1ccc2c(c1)nc(-c1ccccc1)n2CCCc1ccccc1)c1ccccc1Br [2-Bromo-N-(2-phenyl-1-(3-phenylpropyl)-1H-benzo[d]imidazol-5-yl)benzenesulfonamide (19)]
  IC50: 20.8 µM

## O=S(=O)(Nc1ccc2nc(-c3ccccc3)oc2c1)c1ccccc1Br [2-Bromo-N-(2-phenylbenzo[d]oxazol-6-yl)benzenesulfonamide (8)]
  IC50: > 40 µM

## O=C(Nc1ccc2c(c1)nc(-c1ccccc1)n2CCCc1ccccc1)c1ccccc1F [2-Fluoro-N-(2-phenyl-1-(3-phenylpropyl)-1H-benzo[d]imidazol-5-yl)benzamide (21)]
  IC50: 9.59 µM

## O=C(Nc1ccc2nc(-c3ccccc3)oc2c1)c1ccccc1F [2-Fluoro-N-(2-phenylbenzo[d]oxazol-6-yl)benzamide (11)]
  IC50: > 40 µM

## COc1ccccc1C(=O)Nc1ccc2c(c1)nc(-c1ccccc1)n2CCCc1ccccc1 [2-Methoxy-N-(2-phenyl-1-(3-phenylpropyl)-1H-benzo[d]imidazol-5-yl)benzamide (23)]
  IC50: 1.75 µM

## COc1ccccc1S(=O)(=O)Nc1ccc2c(c1)nc(-c1ccccc1)n2CCCc1ccccc1 [2-Methoxy-N-(2-phenyl-1-(3-phenylpropyl)-1H-benzo[d]imidazol-5-yl)benzenesulfonamide (14)]
  IC50: 2.63 µM

## COc1ccccc1C(=O)Nc1ccc2nc(-c3ccccc3)oc2c1 [2-Methoxy-N-(2-phenylbenzo[d]oxazol-6-yl)benzamide (10)]
  IC50: 12.8 µM

## O=C(Nc1ccc2c(c1)nc(-c1ccccc1)n2CCCc1ccccc1)c1cccc(Br)c1 [3-Bromo-N-(2-phenyl-1-(3-phenylpropyl)-1H-benzo[d]imidazol-5-yl)benzamide (22)]
  IC50: 1.32 µM

## O=C(Nc1ccc2nc(-c3ccccc3)oc2c1)c1cccc(Br)c1 [3-Bromo-N-(2-phenylbenzo[d]oxazol-6-yl)benzamide (12)]
  IC50: 15.3 µM

## O=[N+]([O-])c1cccc(S(=O)(=O)Nc2ccc3c(c2)nc(-c2ccccc2)n3CCCc2ccccc2)c1 [3-Nitro-N-(2-phenyl-1-(3-phenylpropyl)-1H-benzo[d]imidazol-5-yl)benzenesulfonamide (13)]
  IC50: 35.4 µM

## CC(C)(C)c1ccc(S(=O)(=O)Nc2ccc3c(c2)nc(-c2ccccc2)n3CCCc2ccccc2)cc1 [4-(tert-Butyl)-N-(2-phenyl-1-(3-phenylpropyl)-1H-benzo[d]imidazol-5-yl)benzenesulfonamide (20)]
  IC50: 16.3 µM

## CC(C)(C)c1ccc(S(=O)(=O)Nc2ccc3nc(-c4ccccc4)oc3c2)cc1 [4-(tert-Butyl)-N-(2-phenylbenzo[d]oxazol-6-yl)benzenesulfonamide (9)]
  IC50: 36.3 µM

## N#Cc1ccc(S(=O)(=O)Nc2ccc3c(c2)nc(-c2ccccc2)n3CCCc2ccccc2)cc1 [4-Cyano-N-(2-phenyl-1-(3-phenylpropyl)-1H-benzo[d]imidazol-5-yl)benzenesulfonamide (18)]
  IC50: 18.8 µM

## N#Cc1ccc(S(=O)(=O)Nc2ccc3nc(-c4ccccc4)oc3c2)cc1 [4-Cyano-N-(2-phenylbenzo[d]oxazol-6-yl)benzenesulfonamide (7)]
  IC50: 30.4 µM

## O=S(=O)(Nc1ccc2c(c1)nc(-c1ccccc1)n2CCCc1ccccc1)c1ccc(F)cc1 [4-Fluoro-N-(2-phenyl-1-(3-phenylpropyl)-1H-benzo[d]imidazol-5-yl)benzenesulfonamide (17)]
  IC50: 16.1 µM

## COC(=O)c1ccc2c(c1)nc(NC(=O)c1ccccc1)n2CCCc1ccccc1 [Brd4470]
  IC50: 6.1 µM

## CC(C)C[C@H](NC(=O)[C@H](CC(N)=O)NC(=O)[C@@H](N)CC(=O)O)C(=O)N[C@@H](Cc1ccc(O)cc1)C(=O)N[C@@H](Cc1ccc(OP(=O)(O)O)cc1)C(=O)N[C@@H](Cc1c[nH]c2ccccc12)C(=O)N[C@@H](CC(=O)O)C(=O)N[C@@H](CCC(N)=O)C(=O)N[C@@H](CC(=O)O)C(=O)N1CCC[C@H]1C(=O)N1CCC[C@H]1C(=O)O [ErbB2-pep] (H-DNLY[pY]WDQDPP-OH)
  IC50: 15.3 µM

## CC(C)[C@H](NC(=O)[C@@H](N)CCC(=O)O)C(=O)N[C@@H](CO)C(=O)N[C@@H](Cc1ccccc1)C(=O)N[C@@H](Cc1ccc(OP(=O)(O)O)cc1)C(=O)N[C@@H](Cc1ccc(O)cc1)C(=O)N[C@@H](CO)C(=O)N[C@@H](CCC(=O)O)C(=O)N[C@@H](CCC(=O)O)C(=O)N[C@@H](CC(N)=O)C(=O)N[C@@H](CCCCN)C(=O)O [IGF1R-pep] (H-EVSF[pY]YSEENK-OH)
  IC50: 19 µM

## CC(C)[C@H](NC(=O)[C@H](CO)NC(=O)[C@H](CO)NC(=O)[C@@H]1CCCN1)C(=O)N[C@@H](Cc1ccc(OP(=O)(O)O)cc1)C(=O)N[C@H](C(=O)N1CCC[C@H]1C(=O)N[C@@H](CC(=O)O)C(=O)N[C@@H](CCC(=O)O)C(=O)N[C@@H](Cc1c[nH]c2ccccc12)C(=O)N[C@@H](CCC(=O)O)C(=O)O)C(C)C [IR-pep] (H-PSSV[pY]VPDEWE-OH)
  IC50: 26.2 µM

## O=S(=O)(Nc1ccc2c(c1)nc(-c1ccccc1)n2CCCc1ccccc1)c1ccc(OC(F)(F)F)cc1 [N-(2-phenyl-1-(3-phenylpropyl)-1H-benzo[d]imidazol-5-yl)-4-(trifluoromethoxy)benzenesulfonamide (16)]
  IC50: 21.9 µM

## O=S(=O)(Nc1ccc2c(c1)nc(-c1ccccc1)n2CCCc1ccccc1)c1ccc(C(F)(F)F)cc1 [N-(2-phenyl-1-(3-phenylpropyl)-1H-benzo[d]imidazol-5-yl)-4-(trifluoromethyl)benzenesulfonamide (15)]
  IC50: 16 µM

## O=C(Nc1ccc2c(c1)nc(-c1ccccc1)n2CCCc1ccccc1)c1ccc(-c2ccccc2)cc1 [N-(2-phenyl-1-(3-phenylpropyl)-1H-benzo[d]imidazol-5-yl)-[1,1'-biphenyl]-4-carboxamide (24)]
  IC50: 12.2 µM
